The test deals with T1, Streptococcus pneumonia UPPS (Streptococcus pneumoniae serotype 4, UniProt Q97SR4).
T1 construct: His-tag (N); made in house; this is inferred
T1 sequence (Q97SR4 1-252): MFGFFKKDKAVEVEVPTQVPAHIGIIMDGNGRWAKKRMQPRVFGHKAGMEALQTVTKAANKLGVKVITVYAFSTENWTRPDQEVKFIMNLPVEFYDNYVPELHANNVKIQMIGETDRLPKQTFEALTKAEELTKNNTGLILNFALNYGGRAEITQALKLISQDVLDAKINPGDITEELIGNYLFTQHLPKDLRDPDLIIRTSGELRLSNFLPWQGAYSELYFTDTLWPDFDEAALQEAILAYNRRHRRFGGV
Description: UPPS binding/inhibition assay (inorganic phosphate quantified with Biomol Green). It is filed as biochemical. Particulars: 20 min preincubation; FPP 3 μM, IPP 16 μM. How it is done: The ability of several of the compounds described herein to bind to UPPS was also tested as follows.
Streptococcus pneumonia UPPS was cloned into pET-15b, expressed and purified as an N-terminal His-tag fusion using affinity chromatography. The working stock of UPPS was prepared by mixing the purified enzyme with liposome made from E. coli total lipids extract (Avanti Polar Lipis, Inc., Alabaster, Ala.). The substrates FPP and IPP and inorganic pyrophosphatase were purchased from Sigma. Biomol Green reagent was from Biomol International (Plymouth Meeting, Pa.). All other chemicals were from Sigma at the highest grade.
For testing a compound, UPPS was first incubated with the compound at desired concentrations for 20 minutes in the UPPS reaction buffer that contained 100 mM Tris-HCl, pH 7.3, 50 mM KCl, 1 mM MgCl2, 0.01% Triton X-100, and 20 μg/mL BSA. The reaction was then initiated by the addition of a mixture of FPP, IPP, and E. Coli inorganic phosphatase made in the same UPPS reaction buffer. The final concentrations for FPP and IPP were 3 μM and 16 μM, respectively. The inorganic phosphate generated in the reactions was then quantified with Biomol Green reagent, which was then used to determine the rate of the reaction and the inhibitory activity of the compound.
For example, the results of the binding assay for several compounds are shown the table below: […]
As for `O=C(Nc1ccc(C(F)(F)F)nc1)c1c(O)c2ccccc2[nH]c1=O` [compound 157], the half-maximal inhibitory concentration (IC50) (in general, the concentration that gives 50% inhibition) is 0.01 to 10 µM. The value for `O=C(Nc1ccc(Oc2ccccc2)cc1)c1c(O)c2ccccc2[nH]c1=O` [compound 142] was 0.01 to 10 µM; that for `O=C(Nc1ccc(N2CCCCC2)cc1)c1c(O)c2c([nH]c1=O)CNCC2` [compound 120] was 0.01 to 10 µM. Consider `O=C(Nc1ccc(N2CCCCC2)cc1)c1c(O)c2c([nH]c1=O)CCNC2` [compound 121], for which the IC50 lay in the range of 0.01 to 10 µM. As to `COc1ccc(-c2nc(NC(=O)c3c(O)c4cscc4[nH]c3=O)nn2-c2ccc(OC)cc2)cc1` [compound 10], the 50% inhibitory concentration (IC50) was in the range of 0.01 to 10 µM. The compound `O=C(NNC(=O)c1c(O)c2ccccc2[nH]c1=O)c1ccccc1Cl` [compound 131] showed an IC50 of 0.01 to 10 µM. `CCCCCCOc1ccc(NC(=O)c2c(O)c3cc(-c4ccccc4)sc3[nH]c2=O)cc1` [compound 110] registered a concentration for half-maximal inhibition (IC50) of 0.01 to 10 µM.

In turn, `CCCOC(=O)c1ccc(NC(=O)c2c(O)c3c([nH]c2=O)CCCC3)cc1` [compound 124] came in with an IC50 of 0.01 to 10 µM. `O=C(Nc1nc2ccc(Br)cc2s1)c1c(O)c2c([nH]c1=O)CCCC2` [compound 104] showed an IC50 of 0.01 to 10 µM.

As for `CC(C)(C)OC(=O)N1CCC2C(O)=C(C(=O)Nc3ccc(N4CCCC4)cc3)C(=O)NC2C1` (stereo not shown) [compound 54], the IC50 was 0.01 to 10 µM.

In turn, `O=C(NC1CCCCC1)c1c(O)c2ccccc2[nH]c1=O` [compound 137] displayed an IC50 of 0.01 to 10 µM. `CCN1C[C@@H]2NC(=O)C(C(=O)Nc3ccc(C4CCCCC4)cc3)=C(O)[C@H]2C1` [compound 20] returned a 50% inhibitory concentration (IC50) of 0.01 to 10 µM. For the compound `O=C(Nc1ccc(N2CCCCC2)cc1)C1=C(O)C2CCNCC2NC1=O` (stereo not shown) [compound 49], the IC50 was 0.01 to 10 µM.

`O=C(Nc1ccc(N2CCCC2)cc1)C1=C(O)C2CCNCC2NC1=O` (stereo not shown) [compound 61] returned an IC50 of 0.01 to 10 µM. `Cn1c(=O)c(C(=O)Nc2ccc(OC(F)(F)F)cc2)c(O)c2ccccc21` [compound 175] registered an IC50 of 0.01 to 10 µM. In turn, `CC(=O)N1CCc2[nH]c(=O)c(C(=O)Nc3ccc(N4CCCCC4)cc3)c(O)c2C1` [compound 126] came in with an IC50 of 0.01 to 10 µM. Take `O=C(NCc1ccccc1)c1c(O)c2c([nH]c1=O)CCCC2` [compound 84]: the IC50 was in the range of 0.01 to 10 µM.

Regarding `O=C(Nc1ccc(N2CCN(CCO)CC2)cc1)C1=C(O)C2CNCCC2NC1=O` (stereo not shown) [compound 64], the IC50 was > 50 µM. Take `CCCN(CC)c1ccc(NC(=O)c2c(O)c3ccc(N4CCNCC4)cc3[nH]c2=O)cc1` [compound 178]: the IC50 is 0.01 to 10 µM.

For `O=C(Nc1cccc(Cl)c1Cl)c1c(O)c2c([nH]c1=O)CCCC2` [compound 100], the IC50 was > 50 µM. Consider `CC(C)(C)OC(=O)N1CCC2NC(=O)C(C(=O)Nc3ccc(Oc4ccccc4)cc3)=C(O)C2C1` (stereo not shown) [compound 34], for which the concentration for half-maximal inhibition (IC50) was 0.01 to 10 µM.

Consider `COc1ccc(-c2nc(NC(=O)c3c(O)c4ccccc4n(C)c3=O)nn2-c2ccc(OC)cc2)cc1` [compound 173], for which the IC50 lay within 0.01 to 10 µM.

Turning to `O=C(Nc1ccc(N2CCCCC2)cc1)c1c(O)c2cc(N3CCNCC3)ccc2[nH]c1=O` [compound 179], the IC50 was 0.01 to 10 µM. On to `O=C(Nc1ccc(C(F)(F)F)cc1)c1c(O)c2cc(-c3ccccc3)sc2[nH]c1=O` [compound 111], for which the IC50 lay within 10 to 50 µM. As for `O=C(Nc1ccc(C2CCCCC2)cc1)c1c(O)c2cc(-c3ccccc3)sc2[nH]c1=O` [compound 107], the IC50 was 0.01 to 10 µM. Compound `COCCOC(=O)N1CC[C@@H]2NC(=O)C(C(=O)Nc3ccc(N4CCCCC4)cc3)=C(O)[C@H]2C1` [compound 72] displayed an IC50 of 0.01 to 10 µM. `CCN1CC[C@@H]2NC(=O)C(C(=O)Nc3ccc(N4CCCCC4)cc3)=C(O)[C@H]2C1` [compound 69] gave an IC50 of 0.01 to 10 µM.

For `O=C(Nc1ccc(Oc2ccccc2)cc1)c1c(O)c2cscc2[nH]c1=O` [compound 2], the IC50 fell in the range of 0.01 to 10 µM. Regarding `CC(C)(C)C(=O)N1CCc2[nH]c(=O)c(C(=O)Nc3ccc(N4CCCCC4)cc3)c(O)c2C1` [compound 128], the IC50 was 0.01 to 10 µM.

`COC(=O)N1CCc2[nH]c(=O)c(C(=O)Nc3ccc(N4CCCCC4)cc3)c(O)c2C1` [compound 129] showed an IC50 of 0.01 to 10 µM. `O=C(NC1CCCCCC1)c1c(O)c2c([nH]c1=O)CCCC2` [compound 92] returned an IC50 of 0.01 to 10 µM.

Take `CC(C)(C)OC(=O)N1CCC2NC(=O)C(C(=O)Nc3ccc(C4CCCCC4)cc3)=C(O)C2C1` (stereo not shown) [compound 29]: the IC50 fell in the range of 0.01 to 10 µM.

Regarding `O=C(Nc1ccc(C2CCCCC2)cc1)C1=C(O)[C@H]2CNCC[C@@H]2NC1=O` [compound 51], the half-inhibitory concentration (IC50) lay in the range of 0.01 to 10 µM. For `O=C(Nc1ccc(N2CCCCC2)cc1)C1=C(O)C2CNCCC2NC1=O` (stereo not shown) [compound 37], the IC50 was in the range of 0.01 to 10 µM. The value for `CCCN(CC)c1ccc(NC(=O)c2c(O)c3ccc(N4CCN(C)CC4)cc3[nH]c2=O)cc1` [compound 180] was 0.01 to 10 µM. On to `O=C(Nc1ccc(N2CCCCC2)cc1)C1=C(O)[C@H]2CNCC[C@H]2NC1=O` [compound 47], for which the IC50 lay within 0.01 to 10 µM. For `O=C(Nc1ccc(-c2ccccc2)cc1)C1=C(O)C2CNCCC2NC1=O` (stereo not shown) [compound 26], the IC50 lay within 0.01 to 10 µM.

In the case of `O=C(Nc1ccc(-c2ccccc2)cc1)C1=C(O)[C@H]2CNC[C@@H]2NC1=O` [compound 17], the IC50 is 0.01 to 10 µM. In turn, `O=C(Nc1ccc(N2CCCCC2)cc1)C1=C(O)[C@H]2CNCC[C@@H]2NC1=O` [compound 46] displayed an IC50 of 0.01 to 10 µM. For the compound `O=C(NCCN1CCOCC1)c1c(O)c2ccccc2[nH]c1=O` [compound 154], the IC50 was 0.01 to 10 µM. Consider `O=C(Nc1ccc(Oc2ccccc2)cc1)C1=C(O)C2CNCCC2NC1=O` (stereo not shown) [compound 28], for which the IC50 was in the range of 0.01 to 10 µM. On to `C#CCOC(=O)N1CC[C@@H]2NC(=O)C(C(=O)Nc3ccc(N4CCCCC4)cc3)=C(O)[C@H]2C1` [compound 73], for which the IC50 was > 50 µM. On to `CC(C)CCNC(=O)c1c(O)c2c([nH]c1=O)CCCC2` [compound 87], for which the concentration for half-maximal inhibition (IC50) was 0.01 to 10 µM.

`O=C(Nc1ccccc1Oc1ccccc1)c1c(O)c2ccccc2[nH]c1=O` [compound 162]: the IC50 fell in the range of 0.01 to 10 µM. As for `O=C(Nc1ccc(C2CCCCC2)cc1)C1=C(O)[C@H]2CCC[C@H]2NC1=O` [compound 45], the IC50 lay within 0.01 to 10 µM. `Cn1c(=O)c(C(=O)Nc2ccc(Oc3ccccc3)cc2)c(O)c2ccccc21` [compound 168] came in with an IC50 of 0.01 to 10 µM.

As to `O=C(Nc1ccc(C(F)(F)F)cc1)C1=C(O)[C@H]2CCC[C@H]2NC1=O` [compound 40], the IC50 was in the range of 0.01 to 10 µM.

In turn, `CC(C)(C)OC(=O)N1CCC2NC(=O)C(C(=O)Nc3ccc(N4CCN(CCO)CC4)cc3)=C(O)C2C1` (stereo not shown) [compound 59] showed an IC50 of 0.01 to 10 µM. In the case of `O=C(Nc1ccc(N2CCCCC2)cc1)C1=C(O)C2CCNCC2NC1=O` (stereo not shown) [compound 32], the IC50 was 0.01 to 10 µM. In the case of `O=C(Nc1cccc(Br)c1)c1c(O)c2c([nH]c1=O)CCCC2` [compound 93], the IC50 was > 50 µM. As for `O=C(Nc1ccc(C2CCCCC2)cc1)c1c(O)c2cscc2[nH]c1=O` [compound 4], the IC50 was 0.01 to 10 µM. Regarding `COc1cccc2[nH]c(=O)c(C(=O)Nc3ccc(Oc4ccccc4)cc3)c(O)c12` [compound 144], the IC50 is > 50 µM.

Turning to `CNC(=O)c1ccccc1NC(=O)c1c(O)c2c([nH]c1=O)CCCC2` [compound 98], the half-maximal inhibitory concentration (IC50) lay within 0.01 to 10 µM. On to `CC(C)(C)C1CCC(NC(=O)c2c(O)c3cscc3[nH]c2=O)CC1` (stereo not shown) [compound 11], for which the half-maximal inhibitory concentration (IC50) lay within 0.01 to 10 µM. With `O=C(Nc1ccc(-c2ccccc2)cc1)c1c(O)c2cc(Br)ccc2[nH]c1=O` [compound 159], the 50% inhibitory concentration (IC50) lay within 0.01 to 10 µM.

These data come from US20090325948A1, “INHIBITORS OF UNDECAPRENYL PYROPHOSPHATE SYNTHASE” (priority 2006, published 2009).
